Measurements reported in patent US4416884A, “Piperazinylbenzoheterocyclic compounds” (Otsuka Pharmaceutical Co., Ltd., priority 1978, dated 1983).
In brackets after ≈: the same amount, converted by molar mass. Like-named read-outs stand apart in the source and are kept apart here.

Experiments:
Assay in all cases: antimicrobial activity, serial dilution method on agar plate
Assay type in all cases: cell-based
[1] = system: Bacillus subtilis PCI 219
Method in brief: (§1)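 Two inoculum levels used: 1×10^8 cells/ml (O.D. 660 mμ = 0.07–0.16) and a diluted 1×10^6 cells/ml preparation. Minimum inhibitory concentrations in mcg/ml read from serial dilution on Heart Infusion agar plates.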

[2] = system: Corinebacterium diphteriae
Method in brief: as §1

[3] = system: Enterobacter aerogenes IFO 12979; conditions: Klebsiella aerogenes
Method in brief: as §1

Enterobacter cloacae = system: Enterobacter cloacae
Method in brief: as §1

[4] = system: Escherichia Coli NIHJ JC-2 (IFO 12734); conditions: Escherichia coli, read-out: Minimum Inhibitory Concentration
Method in brief: as §1

Escherichia Coli NIHJ = system: Escherichia Coli NIHJ
Method in brief: as §1

Hafnia alvei IFO 3731 = system: Hafnia alvei IFO 3731
Method in brief: as §1

[5] = system: Klebsiella pneumoniae ST-101
Method in brief: as §1

Klebsiella pneumoniae = system: Klebsiella pneumoniae
Method in brief: as §1

[6] = system: Proteus morganii IID Kono; conditions: Morganella morganii
Method in brief: as §1

Proteus rettgeri NIH 96 = conditions: Providencia rettgeri
Method in brief: as §1

[7] = system: Proteus vulgaris IID OX-19; conditions: read-out: Minimum Inhibitory Concentration
Method in brief: as §1

[8] = system: Pseudomonas aeruginosa ATCC 10145
Method in brief: as §1

[9] = system: Pseudomonas aeruginosa E-2
Method in brief: as §1

[10] = system: Pseudomonas aeruginosa NCTC 10490
Method in brief: as §1

[11] = system: Pseudomonas maltophilia IFO 12692; conditions: Stenotrophomonas maltophilia, IFO12692, read-out: Minimum Inhibitory Concentration
Method in brief: as §1

[12] = system: Pseudomonas putida IFO 13696
Method in brief: as §1

[13] = system: Salmonella typhi 0-901 (NCTC 8393); conditions: Salmonella enterica, read-out: Minimum Inhibitory Concentration
Method in brief: as §1

[14] = system: Serattia marcescens IFO 12648
Method in brief: as §1

Shigella Sonnei EW 33 = conditions: read-out: Minimum Inhibitory Concentration
Method in brief: as §1

[15] = system: Staphylococcus aureus FDA 209 P
Method in brief: as §1

[16] = system: Streptococcus pneumoniae Type III
Method in brief: as §1

[17] = system: Streptococcus pneumoniae Type II
Method in brief: as §1

[18] = system: Streptococcus pneumoniae Type I
Method in brief: as §1

[19] = system: Streptococcus pyogenes IID Cook
Method in brief: as §1

[20] = system: Streptococcus pyogenes IID S-23
Method in brief: as §1

[21] = system: Yersinia enterocolitica 0-3
Method in brief: as §1

[22] = read-out: Minimum Inhibitory Concentration, inoculum 1 × 10^6 cells/ml
[23] = read-out: Minimum Inhibitory Concentration, inoculum 1 × 10^8 cells/ml

CC1CCc2c(N3CCNCC3)ccc3c(=O)c(C(=O)O)cn1c23 (stereo not shown) [A]
MIC ([1]; PCI219, read-out: Minimum Inhibitory Concentration, inoculum 1 × 10^6 cells/ml): 0.8 µg/mL (≈ 2.44 µM) | MIC ([1]; PCI219, read-out: Minimum Inhibitory Concentration, inoculum 1 × 10^8 cells/ml): 0.8 µg/mL (≈ 2.44 µM) | MIC [2, 22]: 1.6 µg/mL (≈ 4.89 µM) | MIC [2, 23]: 1.6 µg/mL (≈ 4.89 µM) | MIC ([3]; IFO12979, read-out: Minimum Inhibitory Concentration, inoculum 1 × 10^6 cells/ml): 0.8 µg/mL (≈ 2.44 µM) | MIC ([3]; IFO12979, read-out: Minimum Inhibitory Concentration, inoculum 1 × 10^8 cells/ml): 0.8 µg/mL (≈ 2.44 µM) | MIC (Enterobacter cloacae; [22]): 0.8 µg/mL (≈ 2.44 µM) | MIC (Enterobacter cloacae; [23]): 0.8 µg/mL (≈ 2.44 µM) | MIC [4]: 1.6 µg/mL (≈ 4.89 µM) | MIC (Escherichia Coli NIHJ; [22]): 0.4 µg/mL (≈ 1.22 µM) | MIC (Escherichia Coli NIHJ; [23]): 0.8 µg/mL (≈ 2.44 µM) | MIC (Hafnia alvei IFO 3731; IFO3731, read-out: Minimum Inhibitory Concentration, inoculum 1 × 10^6 cells/ml): 3.1 µg/mL (≈ 9.47 µM) | MIC (Hafnia alvei IFO 3731; IFO3731, read-out: Minimum Inhibitory Concentration, inoculum 1 × 10^8 cells/ml): 6.3 µg/mL (≈ 19.2 µM) | MIC ([5]; ST101, read-out: Minimum Inhibitory Concentration, inoculum 1 × 10^6 cells/ml): 0.2 µg/mL (≈ 0.611 µM) | MIC ([5]; ST101, read-out: Minimum Inhibitory Concentration, inoculum 1 × 10^8 cells/ml): 0.4 µg/mL (≈ 1.22 µM) | MIC (Klebsiella pneumoniae; [22]): 1.6 µg/mL (≈ 4.89 µM) | MIC (Klebsiella pneumoniae; [23]): 1.6 µg/mL (≈ 4.89 µM) | MIC [6, 22]: 3.1 µg/mL (≈ 9.47 µM) | MIC [6, 23]: 6.3 µg/mL (≈ 19.2 µM) | MIC (Proteus rettgeri NIH 96; NIH96, read-out: Minimum Inhibitory Concentration, inoculum 1 × 10^6 cells/ml): 0.4 µg/mL (≈ 1.22 µM) | MIC (Proteus rettgeri NIH 96; NIH96, read-out: Minimum Inhibitory Concentration, inoculum 1 × 10^8 cells/ml): 0.4 µg/mL (≈ 1.22 µM) | MIC ([7]; IIDOX19, inoculum 1 × 10^6 cells/ml): 0.8 µg/mL (≈ 2.44 µM) | MIC ([7]; IIDOX19, inoculum 1 × 10^8 cells/ml): 1.6 µg/mL (≈ 4.89 µM) | MIC ([8]; ATCC10145, read-out: Minimum Inhibitory Concentration, inoculum 1 × 10^6 cells/ml): 6.3 µg/mL (≈ 19.2 µM) | MIC ([8]; ATCC10145, read-out: Minimum Inhibitory Concentration, inoculum 1 × 10^8 cells/ml): 6.3 µg/mL (≈ 19.2 µM) | MIC ([9]; E2, read-out: Minimum Inhibitory Concentration, inoculum 1 × 10^6 cells/ml): 6.3 µg/mL (≈ 19.2 µM) | MIC ([9]; E2, read-out: Minimum Inhibitory Concentration, inoculum 1 × 10^8 cells/ml): 12.5 µg/mL (≈ 38.2 µM) | MIC ([10]; NCTC10490, read-out: Minimum Inhibitory Concentration, inoculum 1 × 10^6 cells/ml): 3.1 µg/mL (≈ 9.47 µM) | MIC ([10]; NCTC10490, read-out: Minimum Inhibitory Concentration, inoculum 1 × 10^8 cells/ml): 6.3 µg/mL (≈ 19.2 µM) | MIC [11]: 12.5 µg/mL (≈ 38.2 µM) | MIC ([12]; IFO13696, read-out: Minimum Inhibitory Concentration, inoculum 1 × 10^6 cells/ml): 1.6 µg/mL (≈ 4.89 µM) | MIC ([12]; IFO13696, read-out: Minimum Inhibitory Concentration, inoculum 1 × 10^8 cells/ml): 3.1 µg/mL (≈ 9.47 µM) | MIC ([13]; inoculum 1 × 10^6 cells/ml): 0.2 µg/mL (≈ 0.611 µM) | MIC ([13]; inoculum 1 × 10^8 cells/ml): 0.4 µg/mL (≈ 1.22 µM) | MIC [14, 22]: 1.6 µg/mL (≈ 4.89 µM) | MIC [14, 23]: 3.1 µg/mL (≈ 9.47 µM) | MIC (Shigella Sonnei EW 33; inoculum 1 × 10^6 cells/ml): 0.4 µg/mL (≈ 1.22 µM) | MIC (Shigella Sonnei EW 33; inoculum 1 × 10^8 cells/ml): 0.8 µg/mL (≈ 2.44 µM) | MIC ([15]; FDA209, read-out: Minimum Inhibitory Concentration, inoculum 1 × 10^6 cells/ml): 3.1 µg/mL (≈ 9.47 µM) | MIC ([15]; FDA209, read-out: Minimum Inhibitory Concentration, inoculum 1 × 10^8 cells/ml): 6.3 µg/mL (≈ 19.2 µM) | MIC [16, 22]: 12.5 µg/mL (≈ 38.2 µM) | MIC [16, 23]: 25 µg/mL (≈ 76.4 µM) | MIC [17, 22]: 6.3 µg/mL (≈ 19.2 µM) | MIC [17, 23]: 25 µg/mL (≈ 76.4 µM) | MIC [18, 22]: 3.1 µg/mL (≈ 9.47 µM) | MIC [18, 23]: 12.5 µg/mL (≈ 38.2 µM) | MIC [19, 22]: 12.5 µg/mL (≈ 38.2 µM) | MIC [19, 23]: 25 µg/mL (≈ 76.4 µM) | MIC ([20]; IIDS23, read-out: Minimum Inhibitory Concentration, inoculum 1 × 10^6 cells/ml): 12.5 µg/mL (≈ 38.2 µM) | MIC ([20]; IIDS23, read-out: Minimum Inhibitory Concentration, inoculum 1 × 10^8 cells/ml): 25 µg/mL (≈ 76.4 µM) | MIC ([21]; Yersinia enterocolitica, 03, read-out: Minimum Inhibitory Concentration, inoculum 1 × 10^6 cells/ml): 1.6 µg/mL (≈ 4.89 µM) | MIC ([21]; Yersinia enterocolitica, 03, read-out: Minimum Inhibitory Concentration, inoculum 1 × 10^8 cells/ml): 3.1 µg/mL (≈ 9.47 µM)
